# Values joined by “and” are separate entries in the source; they are usually repeats but may differ in a detail not shown here. Equal values may be shown once.
# What was measured:
# T7 RNA polymerase [1] = biological target: T1, T7 RNA polymerase (Escherichia phage T7, UniProt P00573); experiment: Transcription by T7 RNA polymerase in presence of rNTP, RNase T2 digestion, 2-dimension TLC (templates 1 and 3); assay type: biochemical; conditions: for Template 1 (N = A) Measured Value / Template 3 (N = X) Measured Value: rATP, rGTP, rCTP, UTP 2 mM, rYTP 1 mM, nucleotide composition by 2-dimension TLC
# T1 sequence (P00573 whole entry): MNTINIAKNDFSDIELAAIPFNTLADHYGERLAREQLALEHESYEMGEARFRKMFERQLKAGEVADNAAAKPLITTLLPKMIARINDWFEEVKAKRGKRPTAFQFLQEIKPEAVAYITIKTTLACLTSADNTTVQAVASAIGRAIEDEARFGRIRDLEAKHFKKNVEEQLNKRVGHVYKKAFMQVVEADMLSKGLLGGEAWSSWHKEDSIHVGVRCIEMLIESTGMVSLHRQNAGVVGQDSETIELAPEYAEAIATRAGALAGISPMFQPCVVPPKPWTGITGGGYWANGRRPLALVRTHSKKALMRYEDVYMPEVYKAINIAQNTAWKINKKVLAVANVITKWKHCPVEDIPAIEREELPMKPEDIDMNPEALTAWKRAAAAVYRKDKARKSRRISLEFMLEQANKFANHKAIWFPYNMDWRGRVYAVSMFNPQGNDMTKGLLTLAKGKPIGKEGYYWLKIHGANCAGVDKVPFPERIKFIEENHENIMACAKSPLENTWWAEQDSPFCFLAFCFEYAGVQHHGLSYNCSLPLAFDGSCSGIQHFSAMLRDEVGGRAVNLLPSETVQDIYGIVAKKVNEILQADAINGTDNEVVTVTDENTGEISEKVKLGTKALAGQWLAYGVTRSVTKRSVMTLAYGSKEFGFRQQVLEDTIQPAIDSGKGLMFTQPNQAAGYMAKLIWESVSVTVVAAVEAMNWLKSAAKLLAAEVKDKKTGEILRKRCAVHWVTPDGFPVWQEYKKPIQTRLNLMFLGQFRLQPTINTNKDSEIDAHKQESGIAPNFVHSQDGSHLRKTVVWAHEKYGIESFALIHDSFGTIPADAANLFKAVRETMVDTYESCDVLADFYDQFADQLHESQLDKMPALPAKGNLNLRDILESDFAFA
# Protocol: Transcription reaction in the presence of rNTP was conducted. […] ATP under the condition of rATP 2 mM, rGTP 2 mM, rCTP 2 mM, UTP 2 mM, and rYTP 1 mM, then generated full length of RNA was digested completely by RNase T2, nucleotide labeled at 3′-terminal was analyzed by 2-dimension TLC. Outline of this experiment is shown as follows.
# Reaction was performed as same as in example 8. The generated RNA was isolated by gel electrophoresis. RNA was digested by 0.75 units RNase T2. Each nucleotide was separated using 2-dimension TLC and each ratio was calculated.
# Klenow fragment (exo+) = biological target: T2, Klenow fragment (exo+) (Escherichia coli, UniProt P00582); experiment: Single nucleotide insertion reaction using Klenow fragment (exo+); assay type: biochemical, E. coli; conditions: 3 minutes; for rate of incorporation on dx2: template N = X2, 37° C.
# T2 construct: Klenow fragment, which is deleted 5′-exonuclease from DNA polymerase I; purchased TAKARA
# T2 sequence (P00582 324-928): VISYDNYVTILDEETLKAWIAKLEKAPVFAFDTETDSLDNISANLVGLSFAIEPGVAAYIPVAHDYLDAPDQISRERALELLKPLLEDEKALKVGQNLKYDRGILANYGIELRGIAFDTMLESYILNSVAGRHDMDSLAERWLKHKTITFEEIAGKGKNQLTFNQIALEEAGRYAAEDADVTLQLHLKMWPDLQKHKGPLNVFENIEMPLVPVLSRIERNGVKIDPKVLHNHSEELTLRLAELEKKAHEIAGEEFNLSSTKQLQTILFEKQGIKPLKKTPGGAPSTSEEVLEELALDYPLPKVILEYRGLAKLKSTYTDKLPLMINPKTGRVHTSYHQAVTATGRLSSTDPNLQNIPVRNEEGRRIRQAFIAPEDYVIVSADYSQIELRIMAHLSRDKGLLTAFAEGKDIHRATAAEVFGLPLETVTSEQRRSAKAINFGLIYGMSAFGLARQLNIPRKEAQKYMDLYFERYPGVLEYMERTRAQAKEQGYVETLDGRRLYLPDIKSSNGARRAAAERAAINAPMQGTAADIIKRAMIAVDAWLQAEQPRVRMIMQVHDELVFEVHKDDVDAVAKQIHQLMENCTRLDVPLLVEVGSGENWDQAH
# Protocol: Using Klenow fragment (exo^+), incorporation of dYTP on dx2 in the template (refer to example 10).
# In the template, a position indicated by N was bound with base X or base X2 (for experimental) or base A (for control), and incorporation experiments of various bases were conducted. Results are shown in FIG. 12, in which lanes 1 and 2 indicate control experiments for incorporation of cytosine (C) and thymine (T) on adenine (A).
# A solution containing [5′-^32P] labeled primer DNA (20-mer, […]), template DNA (35-mer, […]) and 2× Klenow fragment buffer (TAKARA) were annealed at 95° C. for 3 minutes, 40° C. for 3 minutes and 4° C. for 7 minutes. A solution of equimolar amount of 40 mM dNTP and Klenow fragment (exo^+) (2 unit/ml, For Sequencing, TAKARA) were added thereto and incubated at 37° C. for 3 minutes. […] Products were analyzed by using Phosphoroimager plate.
# Klenow fragment [2] = biological target: T3, Klenow fragment (Escherichia coli, UniProt P00582); conditions: 17° C.
# T3 sequence (P00582 324-928): as above
# Protocol: Primer 2 without labeling and template 2 were annealed, and [α-^32P] TTP and various amounts of dYTP were added thereto to find out ratio of inhibition of incorporation of [α-^32P] TTP into X by dYTP was investigated. […] As a result, when dYTP was added almost equivalent level of [α-^32P] TTP, incorporation of [α-^32P]
# Primer, template and 10× Klenow fragment buffer (TAKARA) 1 μl were added to 0.5 ml tube, and total volume was adjusted to 7 μl, and annealed at 95° C. for 3 minutes, at 40° C. for 3 minutes and at 4° C. for 7 minutes. [α-^32P] TTP or [α-^32P] dCTP and dYTP were added to final concentration for each level, and Klenow fragment (1 unit/ml, For Sequencing, TAKARA) 2 μl was added, adjusted to total volume to 10 μl and incubated for the fixed time at 17° C. The reaction was terminated by adding 10 M urea BPB dye 5 μl kept at 75° C. for 5 minutes, and electrophoresed with 20% polyacrylamide gel with 7M urea gel electrophoresis. The result was analyzed using imaging plates (Phosphoroimager analysis).
# Klenow fragment [3] = biological target: T3, Klenow fragment; experiment: Single nucleotide insertion reaction by Klenow fragment; assay type: biochemical, E. coli; parameters: Klenow fragment, which is deleted 5′-exonuclease from DNA polymerase I; purchased TAKARA; conditions: primer 2 1 μM, only one dNTP 159 μM, 17° C., 30 minutes; for incorporated into complementary strand of X: template 3 2 μM
# Protocol: For quantitative analysis of the incorporation, same experiments were conducted by adding only DNTP (159 μM) using primer 2 (1 μM) labeled with p32 at 5′-terminal and template 1, 2 and 3 (2 μM).
# The result was analyzed using imaging plates (Phosphoroimager analysis). Single nucleotide insertion reaction is shown in FIG. 7 and primer extension reaction is shown in FIG. 6 and FIG. 9, respectively.
# T7 RNA polymerase [4] = biological target: T1, T7 RNA polymerase; experiment: Transcription by T7 RNA polymerase, gel electrophoresis of generated RNA; assay type: biochemical; conditions: for incorporation into the complementary strand of A in transcription (FIG. 10): template 1 (N=A); for incorporation in transcription opposite G (FIG. 10): template 2 (N=G); for incorporation to X in transcription (FIG. 10): template 3 (N=X)
# Protocol: Similarly, a transcription reaction by RNA polymerase using DNA containing X as template was examined. Using template 1-3, promoter region on this strand was duplicated, and the transcription reaction was examined using T7 RNA polymerase by adding [α-^32P] ATP.
# Template DNA 1 μM, in which promoter region has duplicated strands, and T7 RNA polymerase 2.5 units were added to a solution containing 2 mM rNTP, [α-^32P] […] The product was analyzed.
# Klenow fragment [5] = biological target: T3, Klenow fragment; experiment: Primer extension reaction by Klenow fragment; assay type: biochemical, E. coli; parameters: Klenow fragment, which is deleted 5′-exonuclease from DNA polymerase I; purchased TAKARA; conditions: 17° C.; for incorporation to the complementary strand X (primer extension, FIG. 6): template 3 1 μM
# Description: In order to examine formation of selective novel nucleic acid base pair by utilizing steric hindrance in the base pair X-Y, primer extension method of DNA and transcriptional reaction synthesizing RNA from DNA were applied. The primer extension method includes annealing template DNA oligomer with a primer oligomer, and adding DNA polymerase and 2′-deoxynucleotide-5′-triphosphate (dNTP) to extend complementary sequence of the template at 3′-terminal of the primer. Klenow fragment, which is deleted 5′-exonuclease from DNA polymerase I, one of DNA polymerase originated from E. coli, and T7 RNA polymerase, RNA polymerase originated from T7 phage, were herein used. Both enzymes are commonly used at present.
# 5′-terminal of the primer was labeled with ^32P using T4 polynucleotide kinase and […]. Primer labeled with ^32P (0.5 μM) and template 1 and 3 (1 μM) and various dNTP (150 μM), wherein N means base, were used for primer extension by Klenow fragment (0.2 unit/μl) at 17° C. for 30 minutes.
# The thus obtained product was electrophoresed using 20% polyacrylamide 7M urea gel and analyzed by using imaging plate (Phosphoroimager analysis). In FIG. 6, left five, i.e. AG, AGC, AGT, AGY and AGCT, indicates cases using template 1, and right five indicates cases using template 3.
# In order to search effect of incorporation of Y, C and T into the complementary strand of X, when two X are presented on the template, ^32P labeled primer 3 at 5′-terminal and template 4, 5, 6, 7, 8 and 9 were used for primer extension method.
# 5′-^32P labeled primer, template and 10× Klenow fragment buffer (TAKARA) 1 μl were added to the 0.5 ml tube, adjusted total volume to 7 μl, and annealed at 95° C. for 3 minutes, at 40° C. for 3 minutes and at 4° C. for 7 minutes. dNTP 1 μl, Klenow fragment (1 unit/ml, For Sequencing, TAKARA) 2 μl were added, adjusted to total volume to 10 μl and incubated for the fixed time at 17° C. The reaction was terminated by adding 10 M urea BPB dye 5 μl, heated at 75° C. for 5 minutes, and electrophoresed with 20% polyacrylamide gel with 7M urea gel electrophoresis. The result was analyzed using imaging plates (Phosphoroimager analysis). Single nucleotide insertion reaction is shown in FIG. 7 and primer extension reaction is shown in FIG. 6 and FIG. 9, respectively.
# [6] = primer 1 0.5 μM, dNTP 150 μM, 30 minutes
smiles,measurement,setting,value
Nc1nc2c(ncn2[C@@H]2O[C@H](CO)[C@@H](OP(=O)(O)O)[C@H]2O)c(=O)[nH]1 [Gp],Template 1 (N = A) Measured Value,T7 RNA polymerase [1],4
same,Template 3 (N = X) Measured Value,T7 RNA polymerase [1],4
"O=c1[nH]cccc1[C@H]1C[C@H](O)[C@@H](COP(=O)(O)OP(=O)(O)OP(=O)(O)O)O1 [dYTP, 3-(2′-deoxy-5′-O-triphosphoryl-β-D-ribofuranosyl) pyridine-2-one]",rate of incorporation on dx2,Klenow fragment (exo+),40%
same,rate of incorporation on dx,"Klenow fragment (exo+); template N = X, 37° C.",21%
same,inhibition of incorporation of [α-32P] TTP into X by dYTP,"Klenow fragment [2]; dYTP added at almost equivalent level of [α-32P] TTP, 30 minutes",50%
same,inhibition of incorporation of [α-32P] TTP into the complementary strand of A,"Klenow fragment [2]; template 1, dYTP 0-1000 μM",did not inhibit
same,inhibition of incorporation of [α-32P] CTP into the complementary strand of G,"Klenow fragment [2]; template 2, dYTP 0-1000 μM",did not inhibit
Nc1ccn([C@@H]2O[C@H](CO)[C@@H](OP(=O)(O)O)[C@H]2O)c(=O)n1 [Cp],Template 1 (N = A) Measured Value,T7 RNA polymerase [1],0.78
same,Template 3 (N = X) Measured Value,T7 RNA polymerase [1],0.94
Nc1ncnc2c1ncn2[C@@H]1O[C@H](CO)[C@@H](OP(=O)(O)O)[C@H]1O [Ap],Template 1 (N = A) Measured Value,T7 RNA polymerase [1],0.92
same,Template 3 (N = X) Measured Value,T7 RNA polymerase [1],1.05
O=c1ccn([C@@H]2O[C@H](CO)[C@@H](OP(=O)(O)O)[C@H]2O)c(=O)[nH]1 [Up],Template 1 (N = A) Measured Value,T7 RNA polymerase [1],0.98
same,Template 3 (N = X) Measured Value,T7 RNA polymerase [1],0.08
"O=c1cccc[nH]1 [Y, pyridine-2-one]",incorporation in transcription reaction in the presence of rNTP,T7 RNA polymerase [1]; template 1 (N=A),no incorporation
same,incorporation in transcription reaction in the presence of rNTP,T7 RNA polymerase [1]; template 3 (N=X),almost selectively incorporated
same,incorporated into complementary strand of A,Klenow fragment [3]; template 1 2 μM,78%
same,incorporated into complementary strand of G,Klenow fragment [3]; template 2 2 μM,48%
same,incorporated into complementary strand of X,Klenow fragment [3],42% and 41%
same,incorporation into the complementary strand of A in transcription (FIG. 10),T7 RNA polymerase [4],incorporated
same,incorporation in transcription opposite G (FIG. 10),T7 RNA polymerase [4],almost no production
same,incorporation to X in transcription (FIG. 10),T7 RNA polymerase [4],selective incorporation
same,incorporation into the complementary strand of the second X in the two X,"Klenow fragment [5]; another base between two X on the template, primer 3, dNTP 150 μM, 60 minutes (FIG. 9)",only Y was incorporated
same,"incorporation into complementary strands (primer extension, FIG. 6)","Klenow fragment [5]; primer 1 0.5 μM, template 1 and 3 1 μM, dNTP 150 μM, 30 minutes","incorporated into complementary strands of A, G and X"
"Nc1cc[nH]c(=O)n1 [C, cytosine]",incorporated into complementary strand of X,Klenow fragment [3],9.5%
same,incorporation in transcription opposite G (FIG. 10),T7 RNA polymerase [4],only C was incorporated
same,"incorporation to the complementary strand X (primer extension, FIG. 6)",Klenow fragment [5]; [6],incorporated
"Cc1c[nH]c(=O)[nH]c1=O [T, thymine]",incorporated into complementary strand of X,Klenow fragment [3],13%
same,"incorporation to the complementary strand X (primer extension, FIG. 6)",Klenow fragment [5]; [6],incorporated
Nc1ccn([C@H]2C[C@H](O)[C@@H](COP(=O)(O)OP(=O)(O)OP(=O)(O)O)O2)c(=O)n1 [dCTP],rate of incorporation on dx2,Klenow fragment (exo+),22%
O=c1cc[nH]c(=O)[nH]1 [U],incorporation in transcription reaction in the presence of rNTP,T7 RNA polymerase [1]; template 3 (N=X),trace amount
same,incorporation into the complementary strand of A in transcription (FIG. 10),T7 RNA polymerase [4],incorporated
same,incorporation to X in transcription (FIG. 10),T7 RNA polymerase [4],Trace amount

# Reference: patent US7667031B2, “Nucleic acid base pair” (Japan Science and Technology Agency, priority 1999, dated 2010)
